These are literature values, as cited in patent publication US20220257469A1, “PHARMACEUTICAL UNIT DOSE SYSTEMS FOR ORAL DRY SOLUTION AND SUSPENSION” (Brillian Pharma Inc., priority 2019, published 2022).

For this data set the following is noted: liquid suspension, in five days, not refrigerated.

Turning to `O=C(O)[C@H]1/C(=C/CO)O[C@@H]2CC(=O)N21` [Clavulanic acid], the loss of potency is listed as 30-40%.
